In one assay the target is T1, EGFR (ErbB1) (Homo sapiens, UniProt P00533).
T1 construct: purchased Invitrogen
The assay is described as follows: Z'-LYTE kinase inhibition assay (Invitrogen), EGFR. The class given is biochemical. As to conditions: for inhibition at 0.1 µM: compound at 100 nM, [ATP] = Km. The gist of the method: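 Z'-LYTE FRET assay: 1.1-5.25 ng EGFR with 2 μM Tyr 04 peptide in 50 mM HEPES pH 7.5, 10 mM MgCl2, 2 mM MnCl2, 1 mM EGTA, 1 mM DTT, 1% DMSO; 60 min kinase reaction then 60 min development at room temperature. IC50 from 10-point 3-fold titrations, percent inhibition vs concentration.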

In the next assay the test system is H3255 cells. In words: MTT cell growth inhibition assay, H3255. In kind it is cell-based. As to conditions: Homo sapiens, NCI-H3255, H3255 cells (L858R mutation), 72 h. On the procedure:
(§1) Inhibition of cell growth by compounds was measured using MTT assay (Mosmann, T., Journal of Immunological Methods, 1983, 65, 55-63). Tumor cell lines were purchased from ATCC (American Type Culture Collection, Manassas, Va.). All cell lines were maintained in RPMI 1640 (Hyclone) supplemented with 10% fetal bovine serum (FBS, Hyclone), glutamine (2 mM, Hyclone), and antibiotics (penicillin 100 U/mL and streptomycin 50 μg/mL) at 37° C. in a humidified atmosphere of 5% CO2 in air. Taxol (as a positive control, Sigma) and compounds were dissolved in DMSO (Sigma), and the final concentration of DMSO in the medium was 1%. Tumor cells were plated in 96-well plates at densities of about 4000 cells/well of a 96-well plate and allowed to adhere/grow for 24 h. They were then treated with various concentrations of drug for 72 h. 3-(4,5-Dimethylthiazol-2-yl)-2,5-diphenyltetrazolium bromide (MTT, Sigma) was used to determine the number of viable cells at the time of compound addition and the number of cells remaining after 72 h compound exposure. The number of cells remaining after 72 h was compared to the number of viable cells at the time of compound addition by measuring the absorbance at 570 nm, allowing for the calculation of growth inhibition.
(§2) All concentrations of compounds were tested in triplicate and controls were averaged over 4 wells. IC50 was calculated by plotting the concentration of compound vs the percentage of inhibition in treated wells using GraphPad Prism 5.
(§3) Tables 5 show IC50 values of several compounds of the invention in A549, A431, H1299, and H1975 human cancer cells. A549 cells have a mutation on KRAS, H3255 cells have L858R mutation, and H1975 cells have double EGFR mutations (L858R/T790M). The scale utilized in Table 5 is as follows: +++ less than 100 nM; ++ between 100 nM and 500 nM; and + greater than 500 nM.

A further assay relates to H1975 cells. In words: MTT cell growth inhibition assay, H1975. The conditions noted are these: Homo sapiens, NCI-H1975, H1975 cells (EGFR L858R/T790M), 72 h. The class given is cell-based. How it is done: as §1, §2, §3
The test system of another assay is A549 cells. The assay is described as follows: MTT cell growth inhibition assay, A549. The class given is cell-based. The conditions noted are these: Homo sapiens, A549 cells (KRAS mutation), 72 h. How it is done:
as §1, §2, §3

Another assay deals with A431 cells. In words: MTT cell growth inhibition assay, A431. The class given is cell-based. The conditions noted are these: Homo sapiens, A-431, 72 h. On the procedure:
as §1, §2, §3

The target of the next assay is T2, BTK (Homo sapiens, UniProt Q06187).
T2 construct: purchased Invitrogen
The assay is described as follows: Z'-LYTE kinase inhibition assay (Invitrogen), BTK. The class given is biochemical. The conditions noted are these: for inhibition at 0.1 µM: compound at 100 nM, [ATP] = Km. The gist of the method:
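Z′-LYTE FRET read-out with Tyr 01 peptide 2 μM and 1.04-10.4 ng kinase in HEPES pH 7.5, MgCl2, EGTA, BRIJ-35; 1 h room temperature reaction, then 1 h development.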

Another assay deals with T3, EGFR (ErbB1) T790M L858R (Homo sapiens, UniProt P00533, L858R/T790M).
T3 construct: purchased Invitrogen
In words: Z'-LYTE kinase inhibition assay (Invitrogen), EGFR L858R/T790M. The class given is biochemical. As to conditions: for inhibition at 0.1 µM: compound at 100 nM, [ATP] = Km. The gist of the method:
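Z′-LYTE FRET assay with EGFR L858R/T790M (0.38-4.22 ng) and 2 μM Tyr 04 peptide in 50 mM HEPES pH 7.0, 10 mM MgCl2, 1 mM EGTA, 1% DMSO; 1 h kinase reaction at room temperature, then 1 h development. 10-point 3-fold titrations; IC50 from concentration vs % inhibition.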

T1 sequence (P00533 25-1210): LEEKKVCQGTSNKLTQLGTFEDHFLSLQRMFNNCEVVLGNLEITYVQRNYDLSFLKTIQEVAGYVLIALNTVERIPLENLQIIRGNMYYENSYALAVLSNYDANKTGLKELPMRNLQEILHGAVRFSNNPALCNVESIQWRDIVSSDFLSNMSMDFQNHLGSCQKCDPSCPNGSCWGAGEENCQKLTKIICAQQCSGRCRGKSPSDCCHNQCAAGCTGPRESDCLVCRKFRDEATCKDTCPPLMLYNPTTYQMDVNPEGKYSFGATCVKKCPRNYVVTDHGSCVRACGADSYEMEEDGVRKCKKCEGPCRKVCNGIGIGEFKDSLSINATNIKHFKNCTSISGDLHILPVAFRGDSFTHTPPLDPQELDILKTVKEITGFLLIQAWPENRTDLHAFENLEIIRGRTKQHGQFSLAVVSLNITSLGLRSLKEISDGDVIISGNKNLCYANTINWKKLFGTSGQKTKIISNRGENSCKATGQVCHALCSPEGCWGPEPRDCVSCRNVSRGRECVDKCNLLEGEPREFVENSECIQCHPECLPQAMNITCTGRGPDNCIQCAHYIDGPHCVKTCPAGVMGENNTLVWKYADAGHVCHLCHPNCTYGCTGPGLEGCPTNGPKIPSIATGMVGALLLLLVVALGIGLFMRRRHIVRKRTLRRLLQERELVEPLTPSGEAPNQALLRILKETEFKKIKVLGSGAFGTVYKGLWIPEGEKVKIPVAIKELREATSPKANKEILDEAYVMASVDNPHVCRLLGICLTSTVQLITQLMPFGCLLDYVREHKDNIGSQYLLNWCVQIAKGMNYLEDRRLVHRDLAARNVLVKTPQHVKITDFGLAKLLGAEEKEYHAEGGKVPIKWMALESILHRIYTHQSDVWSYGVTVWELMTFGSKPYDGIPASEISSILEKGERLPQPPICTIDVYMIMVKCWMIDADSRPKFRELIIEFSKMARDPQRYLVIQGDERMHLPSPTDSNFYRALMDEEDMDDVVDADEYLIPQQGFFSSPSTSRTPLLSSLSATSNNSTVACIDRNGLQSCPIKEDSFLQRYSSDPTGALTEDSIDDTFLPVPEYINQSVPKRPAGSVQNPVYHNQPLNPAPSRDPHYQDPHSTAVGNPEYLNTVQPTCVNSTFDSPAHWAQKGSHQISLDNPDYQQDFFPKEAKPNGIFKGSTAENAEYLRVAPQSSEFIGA
T2 sequence (Q06187 whole entry): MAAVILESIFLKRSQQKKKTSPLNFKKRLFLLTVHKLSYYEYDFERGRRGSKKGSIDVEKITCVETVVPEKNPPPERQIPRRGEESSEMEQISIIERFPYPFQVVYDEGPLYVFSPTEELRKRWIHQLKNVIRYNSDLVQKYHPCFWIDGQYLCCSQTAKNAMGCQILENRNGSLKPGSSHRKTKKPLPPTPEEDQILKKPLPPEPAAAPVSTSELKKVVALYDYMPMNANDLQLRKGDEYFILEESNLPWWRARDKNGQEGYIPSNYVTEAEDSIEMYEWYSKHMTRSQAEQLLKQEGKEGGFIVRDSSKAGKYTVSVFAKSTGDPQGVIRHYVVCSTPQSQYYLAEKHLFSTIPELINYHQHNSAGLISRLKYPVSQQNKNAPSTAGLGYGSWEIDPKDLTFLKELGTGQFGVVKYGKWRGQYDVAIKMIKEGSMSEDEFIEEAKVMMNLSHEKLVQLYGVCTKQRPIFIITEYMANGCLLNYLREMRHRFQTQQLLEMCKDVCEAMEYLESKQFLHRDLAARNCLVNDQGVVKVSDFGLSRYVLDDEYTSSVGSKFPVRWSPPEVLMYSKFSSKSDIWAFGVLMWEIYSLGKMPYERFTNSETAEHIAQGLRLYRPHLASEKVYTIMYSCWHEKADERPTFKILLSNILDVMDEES
T3 sequence (P00533 25-1210 T790M/L858R): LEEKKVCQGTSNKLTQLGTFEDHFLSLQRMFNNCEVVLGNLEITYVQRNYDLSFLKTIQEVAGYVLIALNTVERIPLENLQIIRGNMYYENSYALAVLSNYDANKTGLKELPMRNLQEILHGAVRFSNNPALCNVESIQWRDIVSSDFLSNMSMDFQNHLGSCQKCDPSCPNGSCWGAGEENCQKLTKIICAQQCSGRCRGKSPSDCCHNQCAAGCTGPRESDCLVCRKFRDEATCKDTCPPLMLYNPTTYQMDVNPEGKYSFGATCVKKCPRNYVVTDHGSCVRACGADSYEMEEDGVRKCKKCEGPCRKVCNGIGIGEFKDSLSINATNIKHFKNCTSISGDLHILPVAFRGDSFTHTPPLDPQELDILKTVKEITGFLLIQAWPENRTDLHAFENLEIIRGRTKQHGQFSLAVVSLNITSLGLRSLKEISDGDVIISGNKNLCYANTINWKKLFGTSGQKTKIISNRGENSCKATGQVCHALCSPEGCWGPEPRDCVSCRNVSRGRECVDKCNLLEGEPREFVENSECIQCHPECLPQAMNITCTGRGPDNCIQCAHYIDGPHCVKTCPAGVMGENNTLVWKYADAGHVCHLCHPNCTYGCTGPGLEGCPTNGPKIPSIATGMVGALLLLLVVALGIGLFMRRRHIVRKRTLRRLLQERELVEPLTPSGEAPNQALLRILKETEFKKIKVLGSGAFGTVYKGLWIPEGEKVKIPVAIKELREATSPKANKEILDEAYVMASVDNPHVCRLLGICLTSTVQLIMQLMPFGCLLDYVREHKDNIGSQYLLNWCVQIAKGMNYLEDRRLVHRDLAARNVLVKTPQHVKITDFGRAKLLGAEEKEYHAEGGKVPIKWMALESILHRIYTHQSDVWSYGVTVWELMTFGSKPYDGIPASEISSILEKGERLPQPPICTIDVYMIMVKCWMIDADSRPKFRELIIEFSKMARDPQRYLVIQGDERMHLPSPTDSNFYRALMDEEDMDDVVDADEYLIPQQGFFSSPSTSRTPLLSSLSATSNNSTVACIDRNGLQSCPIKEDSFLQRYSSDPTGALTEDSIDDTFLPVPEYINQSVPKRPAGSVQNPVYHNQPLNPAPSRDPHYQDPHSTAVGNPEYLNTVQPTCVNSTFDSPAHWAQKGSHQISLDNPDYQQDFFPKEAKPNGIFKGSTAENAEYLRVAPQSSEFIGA

The IC50 is the point on the concentration scale where inhibition reaches its midpoint. A higher IC50 goes with a need for much substance. For orientation: inhibition means the share of the control response that was lost under treatment. As to `C=CC(=O)Nc1cc(Nc2ncc3cccc(-c4ccccc4)c3n2)ccc1N(C)CCN(C)C` [Example C004, N-(2-((2-(dimethylamino)ethyl)(methyl)amino)-5-((8-phenylquinazolin-2-yl)amino)phenyl)acrylamide], the IC50 at EGFR (ErbB1) was > 0.1 µM; with H3255 cells, < 0.1 µM; with H1975 cells, < 0.1 µM; in the assay on A549 cells, < 0.1 µM; in the assay with A431 cells, < 0.1 µM; at BTK it was < 0.1 µM. Moreover, the IC50 against EGFR (ErbB1) T790M L858R is < 0.1 µM. Besides, the inhibition at 0.1 µM against EGFR (ErbB1), at BTK and against EGFR (ErbB1) T790M L858R was > 50% each time.
In the case of `C=CC(=O)Nc1cc(Nc2ncc3cccc(-c4cccc(Cl)c4)c3n2)ccc1N(C)CCN(C)C` [Example C005, N-(5-((8-(3-chlorophenyl)quinazolin-2-yl)amino)-2-((2-(dimethylamino)ethyl)(methyl)amino)phenyl) acrylamide], the IC50 against EGFR (ErbB1) is > 0.1 µM; in the assay with H3255 cells, < 0.1 µM; with H1975 cells it was < 0.1 µM; in the assay with A549 cells it was 0.1 to 0.5 µM; in the assay on A431 cells it was < 0.1 µM; at EGFR (ErbB1) T790M L858R, < 0.1 µM. Moreover, the inhibition at 0.1 µM at EGFR (ErbB1), against BTK and at EGFR (ErbB1) T790M L858R was > 50% in each case.
Take `C=CC(=O)Nc1cc(Nc2ncc3cccc(-c4cccc(F)c4)c3n2)ccc1N(C)CCN(C)C` [Example C006, N-(2-((2-(dimethylamino)ethyl)(methyl)amino)-5-((8-(3-fluorophenyl)quinazolin-2-yl)amino)phenyl)acrylamide]: the IC50 at EGFR (ErbB1), in the assay with H3255 cells, with H1975 cells, in the assay on A549 cells, in the assay on A431 cells and against EGFR (ErbB1) T790M L858R was < 0.1 µM in each case. In addition, the inhibition at 0.1 µM at EGFR (ErbB1), on BTK and on EGFR (ErbB1) T790M L858R was > 50% in each case.
With `C=CC(=O)Nc1cc(Nc2ncc3cccc(-c4cncc(F)c4)c3n2)ccc1N(C)CCN(C)C` [Example C022, N-(2-((2-(dimethylamino)ethyl)(methyl)amino)-5-((8-(5-fluoropyridin-3-yl)quinazolin-2-yl)amino)phenyl)acrylamide], the values for the inhibition at 0.1 µM on EGFR (ErbB1), at BTK and against EGFR (ErbB1) T790M L858R were < 50%, > 50% and > 50%, respectively. For the same compound, the half-inhibitory concentration (IC50) with H1975 cells is < 0.1 µM; in the assay on A549 cells, 0.1 to 0.5 µM; in the assay with A431 cells, < 0.1 µM.

The record behind these values is patent publication US10947201B2, “Certain chemical entities, compositions, and methods” (NEUPHARMA, INC., priority 2015, dated 2021).
